From patent US11931459B2, “Treatment of pain in pediatric patients by administration of sustained-release liposomal anesthetic compositions” (Pacira Pharmaceuticals, Inc., priority 2021, dated 2024)
Counter-ions that a name gives are not always drawn.

Columns and labels:
[1] = Bupivacaine PK after local infiltration, noncompartmental analysis (PLAY phase 3 trial, NCT03682302); parameters: species or system human; details: in vivo; for AUC(0-inf): AUC0-∞
Experimental: • Methods: A multicenter, open-label, phase 3, randomized trial (PLAY; NCT03682302) was conducted, with primary and secondary objectives evaluating the pharmacokinetics and safety, respectively, of multivesicular liposomal bupivacaine (EXPAREL®) in pediatric patients (age group 1: 12 to <17 years; age group 2: 6 to <12 years). The hypothesis was that the pharmacokinetics and safety profiles would support the safety of EXPAREL® (also referred to herein as “multivesicular liposomal bupivacaine” or “liposomal bupivacaine”) in pediatric patients. Age group 1 received 4 mg/kg liposomal bupivacaine or 2 mg/kg bupivacaine hydrochloride (HCl) at the end of spine surgery; all patients in age group 2 received liposomal bupivacaine (4 mg/kg) at the end of spine or cardiac surgery. […] In age group 2, 100% and 31% of patients undergoing spine (n=5) and cardiac (n=9) surgery experienced TEAEs, respectively. TEAEs were generally mild or moderate, with no discontinuations due to TEAEs or deaths. […] TEAEs were mild to moderate, supporting the safety of liposomal bupivacaine in pediatric patients undergoing spine or cardiac surgery. Study Design
This study was performed in 2 parts. Part 1 evaluated PK and safety of liposomal bupivacaine. Part 2 followed part 1 and further evaluated the safety of liposomal bupivacaine. For both parts of the study, pediatric patients aged 12 to <17 years (age group 1) were analyzed separately from patients aged 6 to <12 years (age group 2), per FDA guidance for safety studies in pediatric patients.^25
In age group 1, eligible pediatric patients aged 12 to <17 years undergoing spine surgery were randomized 1:1 to receive a single dose of either liposomal bupivacaine (4 mg/kg up to 266 mg) diluted with normal saline, or bupivacaine HCl (2 mg/kg up to 175 mg) via local infiltration at the end of surgery. Randomization was performed with a centralized randomization system using a unique subject identifier and unique random code identifier. In age group 2, all eligible pediatric patients aged 6 to <12 years of age undergoing either spine or cardiac surgery received liposomal bupivacaine (4 mg/kg up to 266 mg) via local infiltration at the end of surgery. Dosing for both age groups was weight based. Guidelines and training were shared with the participating surgeons to ensure reliability in infiltration techniques.
Across age groups and surgical procedures, surgeons administered liposomal bupivacaine or bupivacaine HCl via local infiltration prior to wound closure, with liposomal bupivacaine and bupivacaine HCl administered in small increments into the deep and superficial layers along the entire length of the incision site to ensure uniform drug distribution. Use of intraoperative opioids, acetaminophen, or other nonsteroidal anti-inflammatory drugs as well as postsurgical pain medication in cases of insufficient analgesia during and after surgery was permitted in accordance with the standard of care at each site. Use of local anesthetics within 96 hours after administration of liposomal bupivacaine was prohibited.
The primary objective was to analyze PK of liposomal bupivacaine, including area under the plasma concentration-time curve (AUC), maximum plasma concentration (Cmax), time to Cmax (Tmax), apparent elimination half-life (t1/2), apparent clearance (CL/F), and apparent volume of distribution (Vd/F). To assess plasma concentration of bupivacaine, 8 blood samples were collected up to 42-60 hours after spine surgery and up to 64-72 hours after cardiac surgery in each patient. For both procedures, the first 4 samples were collected ˜15, ˜30, ˜45, and 60-75 minutes after liposomal bupivacaine administration. The last 4 samples were collected in time windows rather than precise time points. For spine surgery, sample windows were 2-3,10-18, 24-36, and 42-60 hours after receiving liposomal bupivacaine or bupivacaine HCl. […]

[2] = Bupivacaine PK, nonlinear mixed-effect modeling (population PK method); assay type: in vivo, human
Experimental: The sample size was determined on the basis of the number of patients needed to characterize the PK profile of liposomal bupivacaine in pediatric patients per FDA requirements. Authorized staff or a designee obtained the randomization assignment once eligible patients were at the clinic site for surgery. Descriptive statistics (number, mean, standard deviation [SD], median, minimum, maximum) were calculated for continuous data; tabulations (number and percentage) were calculated for categorial data. PK analysis included pediatric patients who underwent surgery, received treatment, and provided at least 1 blood sample for quantifiable plasma concentration measurement. PK measures were assessed by noncompartmental analysis. A separate PK analysis was conducted using nonlinear mixed-effect modeling (population PK method) with the spine surgery cohorts combined. The safety analysis included pediatric patients who underwent surgery and received treatment. The incidence of patients reporting TEAEs was tabulated by the number and percentage of patients reporting the TEAE. All analyses and tabulations were performed using SAS, version 9.4; PK descriptive statistics were performed using Sigmastat and Microsoft Excel.
Across age groups, trends in PK parameters between liposomal bupivacaine and bupivacaine HCl using the population PK model were consistent with those observed with noncompartmental analysis (Table 4). The PK of bupivacaine in both age groups and surgery cohorts were adequately described by a linear 2-compartment PK model with fast and slow absorption routes for liposomal bupivacaine. For each treatment (liposomal bupivacaine or bupivacaine HCl), the Cmax in 12-year-old patients was predicted to be similar to that in 17-year-old patients in pediatric patients undergoing spine surgery.

[3] = Safety: treatment-emergent adverse events up to 30 days after surgery (PLAY trial); assay type: in vivo; details: age group 1 (12 to <17 years), spine surgery; liposomal bupivacaine 4 mg/kg or bupivacaine HCl 2 mg/kg
Experimental: • Methods: A multicenter, open-label, phase 3, randomized trial (PLAY; NCT03682302) was conducted, with primary and secondary objectives evaluating the pharmacokinetics and safety, respectively, of multivesicular liposomal bupivacaine (EXPAREL®) in pediatric patients (age group 1: 12 to <17 years; age group 2: 6 to <12 years). The hypothesis was that the pharmacokinetics and safety profiles would support the safety of EXPAREL® (also referred to herein as “multivesicular liposomal bupivacaine” or “liposomal bupivacaine”) in pediatric patients. Age group 1 received 4 mg/kg liposomal bupivacaine or 2 mg/kg bupivacaine hydrochloride (HCl) at the end of spine surgery; all patients in age group 2 received liposomal bupivacaine (4 mg/kg) at the end of spine or cardiac surgery. […]
The sample size was determined on the basis of the number of patients needed to characterize the PK profile of liposomal bupivacaine in pediatric patients per FDA requirements. […] Descriptive statistics (number, mean, standard deviation [SD], median, minimum, maximum) were calculated for continuous data; tabulations (number and percentage) were calculated for categorial data. PK analysis included pediatric patients who underwent surgery, received treatment, and provided at least 1 blood sample for quantifiable plasma concentration measurement. PK measures were assessed by noncompartmental analysis. […]

`CCCCN1CCCCC1C(=O)Nc1c(C)cccc1C` (stereo not drawn) [bupivacaine HCl, bupivacaine hydrochloride] gave a Tmax ([1]; human) of ~1 h, a Tmax ([1]; human, 2 mg/kg) of 0.9 h and an AUC(0-inf) ([1]; human, 2 mg/kg, Geometric mean) of 5060 ng·h/mL. For the same molecule, the AUC(0-inf) ([1]; human, 2 mg/kg, Mean) was 5710 ng·h/mL, the Vd/F ([1]; human, 2 mg/kg, Geometric mean) was 201 L and the Vd/F ([1]; human, 2 mg/kg, Mean) was 227 L. It also gave a half-life ([1]; human, 2 mg/kg, t1/2, Geometric mean) of 7.4 h, a half-life ([1]; human, 2 mg/kg, t1/2, Mean) of 8.4 h and a Cmax ([1]; human, age group 1 (12 to <17 years), spine surgery, local infiltration, liposomal bupivacaine 4 mg/kg (n = 15) or bupivacaine HCl 2 mg/kg (n = 15), read-out: Cmax, Geometric mean) of 488 ng/mL. For the same molecule, the “CL/F, Mean” value [1] was 20.5 L/h, the “CL/F, geometric mean” value [1] was 18.9 L/h and the AUC(0-inf) ([2]; human, plasma, population PK method, spine surgery: liposomal bupivacaine 4 mg/kg (6 to <17 y, n = 18) or bupivacaine HCl 2 mg/kg (12 to <17 y, n = 15), read-out: AUC0-∞, geometric mean) was 6400 ng·h/mL. The Cmax ([2]; human, plasma, population PK method, spine surgery: liposomal bupivacaine 4 mg/kg (6 to <17 y, n = 18) or bupivacaine HCl 2 mg/kg (12 to <17 y, n = 15), read-out: Early Cmax, geometric mean) was 444 ng/mL, the Vd/F ([2]; human, plasma, population PK method, spine surgery: liposomal bupivacaine 4 mg/kg (6 to <17 y, n = 18) or bupivacaine HCl 2 mg/kg (12 to <17 y, n = 15), read-out: Vss/F, geometric mean) was 153 L and the half-life ([2]; human, plasma, population PK method, spine surgery: liposomal bupivacaine 4 mg/kg (6 to <17 y, n = 18) or bupivacaine HCl 2 mg/kg (12 to <17 y, n = 15), read-out: t1/2, geometric mean (converted)) was 6.5 h. The “CL/F, geometric mean” value ([2]; population PK method, spine surgery: liposomal bupivacaine 4 mg/kg (6 to <17 y, n = 18) or bupivacaine HCl 2 mg/kg (12 to <17 y, n = 15)) was 16.8 L/h, the “Median predicted early Tmax” value ([2]; population PK model, spine surgery) was 0.667 h and the “discontinuations due to TEAEs or on-study deaths” value [3] was “no discontinuations due to TEAEs or on-study deaths”.
